One data set deals with HCT-116. Nature of the data set: Cytotoxicity against human HCT116 cells. The data set is classed as functional, cell-based.
For data set [1], the target named is T1, Nicotinamide phosphoribosyltransferase (Homo sapiens, UniProt P43490). The data set is described as follows: Inhibition of NAMPT (unknown origin).
In data set [2] the test system is A2780. The data set is described as follows: Cytotoxicity against human A2780 cells. Format: functional, cell-based.
Data set [3] relates to A2780. The data set is described as follows: Cytotoxicity against human A2780 cells after 72 hrs by SRB assay. Particulars: A2780, 72 h. The data set is classed as functional, cell-based.
For data set [4], the target named is T1, Nicotinamide phosphoribosyltransferase. Nature of the data set: Inhibition of recombinant his-tagged NAMPT (unknown origin) expressed in Escherichia coli after 30 mins.
Data set [5] can be described thus: Cytotoxicity against human U87 cells by MTT assay. Format: functional, cell-based, U-87MG ATCC. Conditions: U-87 MG.
Data set [6] has as its target T1, Nicotinamide phosphoribosyltransferase. Nature of the data set: Inhibition of NAMPT in human U87 cells. The data set is classed as cell-based, U-87MG ATCC.
The test system of data set [7] is A2780. The data set is described as follows: Cytotoxicity against human A2780 cells after 72 hrs by WST-1 assay. The data set is classed as functional, cell-based. Particulars: A2780, 72 h.
Data set [8] in a line: Cytotoxicity against human NYH cells after 3 weeks by clonogenic survival assay. Conditions: 504 h, read-out: LD50 (the source's name). The data set is classed as functional.
Another data set relates to WIL2. The data set is described as follows: Cytotoxicity against human W1L2 cells. The data set is classed as functional, cell-based.
For data set [9], the target named is T1, Nicotinamide phosphoribosyltransferase. Nature of the data set: Binding affinity to NAMPT (unknown origin).
A short description of data set [10]: Cytotoxicity against human SH-SY5Y cells […] after 48 hrs by MTT assay. Format: functional, cell-based.
The nature of data set [11]: Half life in human. The data set is classed as ADME, organism-based. Conditions: in vivo.
In a further data set the test system is K562. Nature of the data set: Cytotoxicity against human K562 cells after 96 hrs by MTT assay. The data set is classed as functional, cell-based. Conditions: K562, 96 h.
The nature of data set [12]: Solubility of the compound in water. The data set is classed as physicochemical.

As usually defined, the EC50 is the concentration giving half of the maximal effect. A word on the IC50: it is the concentration that gives 50% inhibition. Broadly, the Kd is the concentration at which binding is half-saturated. High values mean a looser complex, low ones a tighter complex. The term half-life denotes the time needed for the level to fall by half in the phase considered. Low values mean rapid decline, high ones slow decline. The solubility is how much of the substance goes into solution per volume. Low readings indicate little dissolved substance, high ones much dissolved substance.

T1 sequence (P43490 whole entry): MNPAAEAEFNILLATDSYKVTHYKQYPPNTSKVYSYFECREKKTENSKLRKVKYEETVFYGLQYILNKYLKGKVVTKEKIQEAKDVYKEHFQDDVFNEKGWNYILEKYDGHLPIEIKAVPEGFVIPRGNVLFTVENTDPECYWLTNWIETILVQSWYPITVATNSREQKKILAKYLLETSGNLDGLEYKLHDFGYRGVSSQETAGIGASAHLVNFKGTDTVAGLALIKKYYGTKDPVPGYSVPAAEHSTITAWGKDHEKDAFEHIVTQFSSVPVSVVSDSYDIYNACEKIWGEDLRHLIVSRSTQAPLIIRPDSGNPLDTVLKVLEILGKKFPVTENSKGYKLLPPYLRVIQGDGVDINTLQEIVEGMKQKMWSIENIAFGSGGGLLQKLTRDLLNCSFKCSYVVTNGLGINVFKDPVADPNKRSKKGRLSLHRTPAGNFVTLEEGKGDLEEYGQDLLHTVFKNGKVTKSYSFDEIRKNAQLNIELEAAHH

As to `C#CCN(Cc1cc2c(=O)n(C)c(CN3CCN(CCCN)CC3)nc2cc1Cl)c1ccc(C(=O)NCc2cccnc2)cc1`, the half-maximal effective concentration (EC50) with HCT-116 came out at 18 nM.
Same read-out and setting: to `CC(C)=CCN(Cc1cc2c(=O)n(C)nnc2cc1Cl)c1ccc(C(=O)NCc2cccnc2)cc1` belongs 3 nM.
Turning to `O=C(NCc1cccnc1)Nc1ccc(S(=O)(=O)c2ccccc2OC(F)(F)F)cc1`, the IC50 in [1] came out at 1.2 nM. The compound also yielded an EC50 in the data set on A2780 [2] of 7 nM.
In the case of `N#C/N=C(\NCc1ccc(S(=O)(=O)c2cccc(Cl)c2)cc1)Nc1ccncc1`, the EC50 in the data set with A2780 [3] amounted to 4.1 nM.
`O=C(/C=C/c1cccnc1)Nc1ccc(S(=O)(=O)c2ccccc2)cc1` displayed a concentration giving a half-maximal response (EC50) in the data set with A2780 [3] of 243 nM. Also, in data set [4], the IC50 is 3 nM.
For `O=C1c2cc(S(=O)(=O)O)ccc2-c2ccc(S(=O)(=O)O)cc21`, in data set [5], the half-maximal effective concentration (EC50) came out at 335000 nM.
For the compound `Nc1c(-c2ccc3ccccc3n2)c2ccc([N+](=O)[O-])cc2c(=O)n1Cc1ccccc1`, in [5], the EC50 came to 325000 nM. Moreover, the IC50 in [6] was less than 5000 nM.
As to `O=c1c(NCCCCCCS(=O)(=O)N(OCCN2CCOCC2)C2CCCCC2)c(Nc2ccncc2)c1=O`, in the data set with A2780 [7], the IC50 is 0.03 nM.
Take `O=C(/C=C/c1cccnc1)NCCCCCCS(=O)(=O)N(CCN1CCOCC1)OCC1CCCCC1`: it took 0.16 nM to reach half-maximal inhibition in the data set with A2780 [2] (IC50).
With `N#C/N=C(\NCCCCCCC(=O)N(Cc1ccccc1)OC1CCCCC1)Nc1ccncc1`, in data set [8], the CC50 came to 0.02 nM.
`C#CCN(Cc1cc2c(=O)n(C)c(CN3CCN(C)CC3)nc2cc1Br)c1ccc(C(=O)NCc2cccnc2)cc1` had a half-maximal inhibitory concentration (IC50) in data set [1] of 0.23 nM. The compound also displayed an EC50 in the data set on WIL2 of 0.49 nM.
On to `O=C(/C=C/c1ccc[n+]([C@@H]2O[C@H](CO)[C@@H](O)[C@H]2O)c1)NCCCCC1CCN(C(=O)c2ccccc2)CC1`, for which the Kd in [9] is 45000 nM.
For the compound `Cc1ncsc1C(=O)N1CCC(CCCCNC(=O)c2cc3cnccc3[nH]2)CC1`, the EC50 in the data set with A2780 [3] worked out at 1 nM.
In the data set with A2780 [3], `O=C(NCCCCC1CCN(C(=O)c2ccccc2)CC1)c1cc2ccncc2s1` gave an EC50 of 1.2 nM.
In [10], `O=C(c1ccccc1)N1CCC(CCCCn2cc(/C=C/c3cccnc3)nn2)CC1` gave an IC50 of 3000 nM.
Regarding `O=C(NCCCCCCS(=O)(=O)N(OCCN1CCOCC1)C1CCCCC1)NCc1cccnc1`, the IC50 in the data set with A2780 [2] came out at 0.89 nM.
Take `N#CN=C(NCCCCCCOc1ccc(Cl)cc1)Nc1ccncc1` [CHS-828]: in data set [8], the CC50 stood at 1.7 nM. In addition, the half-life in data set [11] is 3 h.
Regarding `O=C(/C=C/c1cccnc1)NCCCCC1CCN(C(=O)c2ccccc2)CC1` [DAPORINAD], it took 7.2 nM to reach half-maximal inhibition in the data set on K562 (IC50). Moreover, the CC50 in data set [8] came out at 1.5 nM.
As for `COCCOCCOCCOCCOC(=O)OC[n+]1ccc(N/C(=N/C#N)NCCCCCCOc2ccc(Cl)cc2)cc1.[Cl-]` [TEGLARINAD CHLORIDE], the solubility in [12] is no more than 97 mg/mL.

These data come from ChEMBL document CHEMBL2417540, “Medicinal chemistry of nicotinamide phosphoribosyltransferase (NAMPT) inhibitors” (J Med Chem, 2013).
